# Measurements from the kinase profiling compilation of Christmann-Franck et al. (2016).
# Legend:
# Test in all cases: radiometric filter-binding kinase assay, Kinase HotSpot
# Settings in all cases: compound 0.5 µM; ATP 10 µM
# PRKACA (human) = PRKACA (human) (UniProt P17612)
# NUAK2 (human) = NUAK2 (human) (UniProt Q9H093)
# RPS6KA4 KD2 (human) = RPS6KA4 KD2 (human) (UniProt O75676)
# SRPK3 (human) = SRPK3 (human) (UniProt Q9UPE1)
# PLK3 (human) = PLK3 (human) (UniProt Q9H4B4)
# MAP3K8 (human) = MAP3K8 (human) (UniProt P41279)
# CDK6 CCND3 (human) = CDK6 CCND3 (human) (UniProt P30281+Q00534)
# ALK (human) = ALK (human) (UniProt Q9UM73)
# NTRK1 (human) = NTRK1 (human) (UniProt P04629)
# CHEK2 (human) = CHEK2 (human) (UniProt O96017)
# MAPK10 (human) = MAPK10 (human) (UniProt P53779)
# CSNK1A1 (human) = CSNK1A1 (human) (UniProt P48729)
# ZAP70 (human) = ZAP70 (human) (UniProt P43403)
# PTK2 (human) = PTK2 (human) (UniProt Q05397)
# GSK3A (human) = GSK3A (human) (UniProt P49840)
# CAMK2A (human) = CAMK2A (human) (UniProt Q9UQM7)
# MKNK2 (human) = MKNK2 (human) (UniProt Q9HBH9)
# PKN2 (human) = PKN2 (human) (UniProt Q16513)
# CDK5 CDK5R1 p25 (human) = CDK5 CDK5R1 p25 (human) (UniProt Q00535+Q15078)
# MARK3 (human) = MARK3 (human) (UniProt P27448)
# MAP3K14 (human) = MAP3K14 (human) (UniProt Q99558)
# EPHB2 (human) = EPHB2 (human) (UniProt P29323)
# RPS6KA2 KD1 KD2 (human) = RPS6KA2 KD1 KD2 (human) (UniProt Q15349)
# MYLK2 (human) = MYLK2 (human) (UniProt Q9H1R3)
# HIPK4 (human) = HIPK4 (human) (UniProt Q8NE63)
# EPHA7 (human) = EPHA7 (human) (UniProt Q15375)
# CDK9 CCNT1 (human) = CDK9 CCNT1 (human) (UniProt P50750+O60563)
# PRKCG (human) = PRKCG (human) (UniProt P05129)
# DAPK2 (human) = DAPK2 (human) (UniProt Q9UIK4)
# MAPK9 (human) = MAPK9 (human) (UniProt P45984)
# MAP3K7 TAB1 (human) = MAP3K7 TAB1 (human) (UniProt O43318+Q15750)
# AKT3 (human) = AKT3 (human) (UniProt Q9Y243)
# TEK (human) = TEK (human) (UniProt Q02763)
# TTK (human) = TTK (human) (UniProt P33981)
# HCK (human) = HCK (human) (UniProt P08631)
# ABL2 (human) = ABL2 (human) (UniProt P42684)
# ERBB2 (human) = ERBB2 (human) (UniProt P04626)
# MAP3K2 (human) = MAP3K2 (human) (UniProt Q9Y2U5)
# FGR (human) = FGR (human) (UniProt P09769)
# MLTK (human) = MLTK (human) (UniProt Q9NYL2)
# RPS6KA1 KD1 KD2 (human) = RPS6KA1 KD1 KD2 (human) (UniProt Q15418)
# Chain of RPS6KA1 KD1 KD2 (human) (Q15418 whole entry, looked up): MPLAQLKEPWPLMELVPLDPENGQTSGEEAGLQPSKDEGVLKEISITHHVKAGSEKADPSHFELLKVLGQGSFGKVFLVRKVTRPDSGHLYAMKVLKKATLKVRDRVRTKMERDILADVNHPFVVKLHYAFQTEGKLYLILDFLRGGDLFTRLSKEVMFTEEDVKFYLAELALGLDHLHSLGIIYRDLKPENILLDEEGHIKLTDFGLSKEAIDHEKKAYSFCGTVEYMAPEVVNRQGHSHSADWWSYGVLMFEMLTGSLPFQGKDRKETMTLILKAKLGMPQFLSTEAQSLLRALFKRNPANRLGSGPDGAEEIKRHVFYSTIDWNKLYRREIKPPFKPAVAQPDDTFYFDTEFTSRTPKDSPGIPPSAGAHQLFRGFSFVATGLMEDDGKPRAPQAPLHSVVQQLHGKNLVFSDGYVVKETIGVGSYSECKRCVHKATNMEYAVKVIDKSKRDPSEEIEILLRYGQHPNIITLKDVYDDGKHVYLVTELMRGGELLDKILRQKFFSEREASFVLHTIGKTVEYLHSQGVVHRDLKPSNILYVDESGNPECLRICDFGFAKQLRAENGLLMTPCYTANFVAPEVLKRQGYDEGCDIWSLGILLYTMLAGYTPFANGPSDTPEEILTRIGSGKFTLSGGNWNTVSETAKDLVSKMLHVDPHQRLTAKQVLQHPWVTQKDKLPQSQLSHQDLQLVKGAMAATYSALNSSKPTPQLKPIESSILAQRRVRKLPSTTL
# Chain of RPS6KA2 KD1 KD2 (human) (Q15349 whole entry, looked up): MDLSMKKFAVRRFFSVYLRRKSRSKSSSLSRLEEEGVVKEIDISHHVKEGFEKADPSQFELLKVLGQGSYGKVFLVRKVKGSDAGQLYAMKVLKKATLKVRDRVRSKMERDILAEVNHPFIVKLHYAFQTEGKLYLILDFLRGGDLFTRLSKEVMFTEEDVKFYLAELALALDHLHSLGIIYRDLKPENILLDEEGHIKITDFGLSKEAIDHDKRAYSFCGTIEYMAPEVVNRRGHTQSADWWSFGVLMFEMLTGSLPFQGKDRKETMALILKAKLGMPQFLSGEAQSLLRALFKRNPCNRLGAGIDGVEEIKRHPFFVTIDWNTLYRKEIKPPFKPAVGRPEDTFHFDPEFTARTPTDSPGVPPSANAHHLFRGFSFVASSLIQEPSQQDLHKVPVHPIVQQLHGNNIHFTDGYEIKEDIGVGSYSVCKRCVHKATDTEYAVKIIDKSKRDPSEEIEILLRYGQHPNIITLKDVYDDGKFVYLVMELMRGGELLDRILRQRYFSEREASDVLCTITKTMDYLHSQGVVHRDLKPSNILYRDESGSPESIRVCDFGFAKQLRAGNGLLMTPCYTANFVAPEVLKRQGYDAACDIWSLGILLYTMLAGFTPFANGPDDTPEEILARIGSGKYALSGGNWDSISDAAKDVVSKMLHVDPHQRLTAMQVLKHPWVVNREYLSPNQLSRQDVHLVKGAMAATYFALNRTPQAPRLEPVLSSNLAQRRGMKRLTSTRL
# Chain of PTK2 (human) (Q05397 whole entry, looked up): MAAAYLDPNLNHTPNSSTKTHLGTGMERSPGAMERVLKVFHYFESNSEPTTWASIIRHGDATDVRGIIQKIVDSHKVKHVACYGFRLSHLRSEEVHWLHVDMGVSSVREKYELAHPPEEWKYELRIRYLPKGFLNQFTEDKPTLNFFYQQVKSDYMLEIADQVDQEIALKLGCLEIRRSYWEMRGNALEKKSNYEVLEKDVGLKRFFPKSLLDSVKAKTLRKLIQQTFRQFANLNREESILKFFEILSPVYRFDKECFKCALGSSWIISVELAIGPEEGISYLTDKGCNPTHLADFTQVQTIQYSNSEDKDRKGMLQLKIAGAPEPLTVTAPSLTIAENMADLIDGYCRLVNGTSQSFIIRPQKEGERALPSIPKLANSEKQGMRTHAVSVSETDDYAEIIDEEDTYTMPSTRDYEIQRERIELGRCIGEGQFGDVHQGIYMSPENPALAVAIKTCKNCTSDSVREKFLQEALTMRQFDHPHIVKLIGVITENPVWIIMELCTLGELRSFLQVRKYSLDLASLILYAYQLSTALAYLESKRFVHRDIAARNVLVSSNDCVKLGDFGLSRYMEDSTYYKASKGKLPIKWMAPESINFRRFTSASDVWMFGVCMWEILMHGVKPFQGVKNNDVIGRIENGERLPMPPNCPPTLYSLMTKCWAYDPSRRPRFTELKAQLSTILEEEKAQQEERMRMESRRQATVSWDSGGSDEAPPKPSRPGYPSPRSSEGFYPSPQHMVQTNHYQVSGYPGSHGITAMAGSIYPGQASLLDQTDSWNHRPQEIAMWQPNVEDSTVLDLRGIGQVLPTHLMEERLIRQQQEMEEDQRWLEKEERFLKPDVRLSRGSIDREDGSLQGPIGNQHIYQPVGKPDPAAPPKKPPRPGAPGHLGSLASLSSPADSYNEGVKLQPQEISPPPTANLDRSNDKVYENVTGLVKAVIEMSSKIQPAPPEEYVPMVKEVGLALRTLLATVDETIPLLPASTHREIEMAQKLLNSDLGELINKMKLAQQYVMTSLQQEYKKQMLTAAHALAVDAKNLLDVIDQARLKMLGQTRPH
# Chain of ZAP70 (human) (P43403 whole entry, looked up): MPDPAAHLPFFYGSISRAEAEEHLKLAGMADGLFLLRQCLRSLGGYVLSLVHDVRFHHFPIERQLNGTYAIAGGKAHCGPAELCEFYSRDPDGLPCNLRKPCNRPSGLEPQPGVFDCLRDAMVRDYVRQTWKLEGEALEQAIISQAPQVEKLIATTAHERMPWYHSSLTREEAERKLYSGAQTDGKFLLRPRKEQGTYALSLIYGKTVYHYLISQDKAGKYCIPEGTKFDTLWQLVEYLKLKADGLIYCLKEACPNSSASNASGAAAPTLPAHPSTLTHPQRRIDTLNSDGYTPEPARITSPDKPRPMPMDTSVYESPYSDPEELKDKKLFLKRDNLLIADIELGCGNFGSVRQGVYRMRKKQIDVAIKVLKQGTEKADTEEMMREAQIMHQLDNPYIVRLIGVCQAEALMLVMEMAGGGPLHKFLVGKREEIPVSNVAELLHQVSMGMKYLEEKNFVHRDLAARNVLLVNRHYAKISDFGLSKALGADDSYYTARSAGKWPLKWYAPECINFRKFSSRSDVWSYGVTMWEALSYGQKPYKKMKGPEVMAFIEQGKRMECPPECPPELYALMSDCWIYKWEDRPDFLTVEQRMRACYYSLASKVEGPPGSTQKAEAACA
# Chain of PKN2 (human) (Q16513 whole entry, looked up): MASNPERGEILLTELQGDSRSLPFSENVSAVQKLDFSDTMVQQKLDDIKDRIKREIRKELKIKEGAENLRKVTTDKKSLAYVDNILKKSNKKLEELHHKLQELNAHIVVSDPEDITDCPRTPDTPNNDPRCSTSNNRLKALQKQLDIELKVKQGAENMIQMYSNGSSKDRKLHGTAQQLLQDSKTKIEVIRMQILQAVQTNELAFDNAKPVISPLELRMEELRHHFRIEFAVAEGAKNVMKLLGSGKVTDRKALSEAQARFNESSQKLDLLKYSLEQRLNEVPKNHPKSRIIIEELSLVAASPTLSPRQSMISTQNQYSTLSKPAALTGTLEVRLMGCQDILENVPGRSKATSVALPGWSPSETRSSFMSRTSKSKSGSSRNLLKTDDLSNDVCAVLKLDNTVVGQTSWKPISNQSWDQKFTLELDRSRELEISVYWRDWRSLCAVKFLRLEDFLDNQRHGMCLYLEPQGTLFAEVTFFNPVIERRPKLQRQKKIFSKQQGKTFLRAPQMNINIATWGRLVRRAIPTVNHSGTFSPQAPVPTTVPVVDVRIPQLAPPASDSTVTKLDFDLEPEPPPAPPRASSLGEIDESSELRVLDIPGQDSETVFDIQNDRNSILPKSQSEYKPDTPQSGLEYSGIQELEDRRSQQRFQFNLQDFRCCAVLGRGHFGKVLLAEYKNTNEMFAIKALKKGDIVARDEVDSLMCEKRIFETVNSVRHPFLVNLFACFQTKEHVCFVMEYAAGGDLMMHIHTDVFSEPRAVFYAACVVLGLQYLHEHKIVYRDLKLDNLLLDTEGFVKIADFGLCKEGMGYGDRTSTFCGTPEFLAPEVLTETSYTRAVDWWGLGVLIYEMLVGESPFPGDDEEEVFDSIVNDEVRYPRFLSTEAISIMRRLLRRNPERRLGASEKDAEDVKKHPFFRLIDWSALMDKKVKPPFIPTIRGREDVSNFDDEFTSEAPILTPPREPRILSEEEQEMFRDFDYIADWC
# Chain of MAPK9 (human) (P45984 whole entry, looked up): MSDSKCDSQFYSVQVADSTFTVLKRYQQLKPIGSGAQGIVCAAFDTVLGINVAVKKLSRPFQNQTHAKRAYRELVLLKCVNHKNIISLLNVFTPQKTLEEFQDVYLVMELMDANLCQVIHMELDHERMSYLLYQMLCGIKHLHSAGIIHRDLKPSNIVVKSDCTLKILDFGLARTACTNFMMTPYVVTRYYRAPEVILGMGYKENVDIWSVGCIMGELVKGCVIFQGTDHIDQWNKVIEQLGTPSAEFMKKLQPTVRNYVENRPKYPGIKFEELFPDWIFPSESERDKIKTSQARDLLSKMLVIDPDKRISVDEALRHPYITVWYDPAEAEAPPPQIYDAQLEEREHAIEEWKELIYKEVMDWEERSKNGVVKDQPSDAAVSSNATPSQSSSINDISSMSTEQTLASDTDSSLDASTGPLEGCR
# Chain of DAPK2 (human) (Q9UIK4 whole entry, looked up): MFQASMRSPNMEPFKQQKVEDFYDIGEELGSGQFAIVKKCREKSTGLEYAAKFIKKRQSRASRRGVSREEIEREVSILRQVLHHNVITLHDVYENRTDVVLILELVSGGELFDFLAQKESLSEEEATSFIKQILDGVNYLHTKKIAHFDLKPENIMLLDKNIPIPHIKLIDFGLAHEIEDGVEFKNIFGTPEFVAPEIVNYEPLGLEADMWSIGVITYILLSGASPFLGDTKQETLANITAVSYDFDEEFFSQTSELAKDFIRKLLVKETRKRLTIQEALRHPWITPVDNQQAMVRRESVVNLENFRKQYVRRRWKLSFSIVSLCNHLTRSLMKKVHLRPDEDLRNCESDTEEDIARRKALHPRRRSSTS
SMILES,residual activity (NUAK2 (human)) [%],residual activity (RPS6KA4 KD2 (human)) [%],residual activity (SRPK3 (human)) [%],residual activity (PLK3 (human)) [%],residual activity (MAP3K8 (human)) [%],residual activity (CDK6 CCND3 (human)) [%],residual activity (ALK (human)) [%],residual activity (NTRK1 (human)) [%],residual activity (CHEK2 (human)) [%],residual activity (MAPK10 (human)) [%],residual activity (CSNK1A1 (human)) [%],residual activity (PTK2 (human)) [%],residual activity (GSK3A (human)) [%],residual activity (CAMK2A (human)) [%],residual activity (MKNK2 (human)) [%],residual activity (PKN2 (human)) [%],residual activity (CDK5 CDK5R1 p25 (human)) [%],residual activity (MARK3 (human)) [%],residual activity (MAP3K14 (human)) [%],residual activity (RPS6KA2 KD1 KD2 (human)) [%],also measured
CCn1cnc2c(Nc3cccc(Cl)c3)nc(N[C@@H]3CCCC[C@@H]3N)nc21,93.7,88.2,94.9,90.1,93.6,76.9,92.3,92.9,79.9,98.8,98.7,83.1,103,96.5,93.5,90.3,5.16,98.7,85.1,45.1,residual activity (PRKACA (human)): 102%; residual activity (ZAP70 (human)): 106%; residual activity (EPHB2 (human)): 82.9%; residual activity (MYLK2 (human)): 95.2%; residual activity (HIPK4 (human)): 88.4%; residual activity (EPHA7 (human)): 87.6%; residual activity (CDK9 CCNT1 (human)): 53.7%; residual activity (PRKCG (human)): 95%; residual activity (DAPK2 (human)): 99%; residual activity (MAPK9 (human)): 102%; residual activity (MAP3K7 TAB1 (human)): 98.9%; residual activity (AKT3 (human)): 95.8%; residual activity (TEK (human)): 99.9%; residual activity (TTK (human)): 99.7%; residual activity (HCK (human)): 69.6%; residual activity (ABL2 (human)): 65.7%; residual activity (ERBB2 (human)): 95.6%; residual activity (MAP3K2 (human)): 91.7%; residual activity (FGR (human)): 45.8%; residual activity (MLTK (human)): 104%
COc1cc2ncc(-c3ccccc3)nc2cc1OC,133,85.4,91.1,98.3,108,93.7,94.1,93.2,94.2,90.3,100,100,97.9,99.5,86.3,88.3,94.6,98.2,115,85.4,residual activity (PRKACA (human)): 99.4%; residual activity (ZAP70 (human)): 98.6%; residual activity (MYLK2 (human)): 100%; residual activity (HIPK4 (human)): 86.4%; residual activity (RPS6KA1 KD1 KD2 (human)): 88.4%; residual activity (EPHA7 (human)): 94.7%; residual activity (CDK9 CCNT1 (human)): 83.2%; residual activity (PRKCG (human)): 101%; residual activity (DAPK2 (human)): 97.3%; residual activity (MAPK9 (human)): 93.1%; residual activity (MAP3K7 TAB1 (human)): 92.8%; residual activity (AKT3 (human)): 94.5%; residual activity (TEK (human)): 85.7%; residual activity (TTK (human)): 125%; residual activity (HCK (human)): 96.9%; residual activity (ABL2 (human)): 94%; residual activity (ERBB2 (human)): 116%; residual activity (MAP3K2 (human)): 92.5%; residual activity (FGR (human)): 85.4%; residual activity (MLTK (human)): 94.7%
CN([C@@H](Cc1ccc(OS(=O)(=O)c2cccc3cnccc23)cc1)C(=O)N1CCN(c2ccccc2)CC1)S(=O)(=O)c1cccc2cnccc12,88.7,98.7,98,99.3,99.3,105,96.5,111,101,88.2,99,104,99.8,107,104,98.6,93.5,93.7,90.7,102,residual activity (ZAP70 (human)): 99.5%; residual activity (EPHB2 (human)): 103%; residual activity (MYLK2 (human)): 98.8%; residual activity (HIPK4 (human)): 105%; residual activity (RPS6KA1 KD1 KD2 (human)): 109%; residual activity (EPHA7 (human)): 102%; residual activity (CDK9 CCNT1 (human)): 100%; residual activity (PRKCG (human)): 95.4%; residual activity (DAPK2 (human)): 99.7%; residual activity (MAPK9 (human)): 85.6%; residual activity (MAP3K7 TAB1 (human)): 93.4%; residual activity (AKT3 (human)): 104%; residual activity (TEK (human)): 106%; residual activity (TTK (human)): 86%; residual activity (HCK (human)): 97.4%; residual activity (ABL2 (human)): 98.9%; residual activity (ERBB2 (human)): 96%; residual activity (MAP3K2 (human)): 98.9%; residual activity (FGR (human)): 99.5%; residual activity (MLTK (human)): 103%
O=C1NC(=O)C(c2c[nH]c3ccccc23)=C1c1c[nH]c2ccccc12,86,87.4,90,99.9,90.8,103,95.7,92,124,110,98.4,101,27.7,85.3,89.6,103,87.4,98.5,91,11.5,residual activity (PRKACA (human)): 101%; residual activity (EPHB2 (human)): 96.9%; residual activity (MYLK2 (human)): 91.9%; residual activity (HIPK4 (human)): 109%; residual activity (RPS6KA1 KD1 KD2 (human)): 57.6%; residual activity (EPHA7 (human)): 94.3%; residual activity (CDK9 CCNT1 (human)): 89.9%; residual activity (PRKCG (human)): 91.4%; residual activity (DAPK2 (human)): 88.6%; residual activity (MAPK9 (human)): 95.4%; residual activity (MAP3K7 TAB1 (human)): 97%; residual activity (AKT3 (human)): 90%; residual activity (TEK (human)): 101%; residual activity (TTK (human)): 106%; residual activity (HCK (human)): 96%; residual activity (ABL2 (human)): 82.3%; residual activity (ERBB2 (human)): 94.3%; residual activity (MAP3K2 (human)): 107%; residual activity (FGR (human)): 88.5%; residual activity (MLTK (human)): 107%
CC(C)c1nn(-c2c(Cl)cccc2Cl)c2nc(Cc3ccc(OCCO)cc3)nc(O)c12,91.7,95.3,92.9,99.1,96.4,46.6,103,89,98.8,109,99,103,73.1,106,88.9,97.5,2.54,92.2,97.3,80.8,residual activity (PRKACA (human)): 99.8%; residual activity (ZAP70 (human)): 103%; residual activity (EPHB2 (human)): 92.5%; residual activity (MYLK2 (human)): 96.6%; residual activity (HIPK4 (human)): 94.7%; residual activity (RPS6KA1 KD1 KD2 (human)): 91.3%; residual activity (EPHA7 (human)): 97.9%; residual activity (CDK9 CCNT1 (human)): 22.7%; residual activity (PRKCG (human)): 81.1%; residual activity (DAPK2 (human)): 88.3%; residual activity (MAPK9 (human)): 96.5%; residual activity (MAP3K7 TAB1 (human)): 98.5%; residual activity (TEK (human)): 100%; residual activity (TTK (human)): 101%; residual activity (HCK (human)): 94.7%; residual activity (ABL2 (human)): 96.3%; residual activity (ERBB2 (human)): 101%; residual activity (MAP3K2 (human)): 94.7%; residual activity (FGR (human)): 92%; residual activity (MLTK (human)): 94.4%
